Source: patent US20210009557A1, “ACYCLIC CXCR4 INHIBITORS AND USES THEREOF” (X4 Pharmaceuticals, Inc., priority 2017, published 2021)

Assays:
[1] = biological target: T1, CXCR-4 transfected U87 cell line (U87.CXCR4) (Homo sapiens, UniProt P61073); assay: Intracellular CXCL-12-induced calcium mobilization assay (FLIPR); format: cell-based; settings: U87.CXCR4 cells; CXCL-12 25-50 ng/mL; compounds added 15 minutes before; read-out: IC50 CXCL-12 Ca2+ flux U87.CXCR4+
T1 construct: expressed in transfected cells; host or cells: U87 cell line (U87.CXCR4)
Protocol: Intracellular calcium mobilization induced by chemokines orchemokine-derived peptides were evaluated using a calcium responsive fluorescent probe and a FLIPR system. The CXCR-4 transfected U87 cell line (U87.CXCR4) cells were seeded in gelatine-coated black-wall 96-well plates at 20,000 cells per well and incubated for 12 hours. Cells were then loaded with the fluorescent calcium probe Fluo-2 acetoxymethyl at 4 μM final concentration in assay buffer (Hanks' balanced salt solution with 20 mM HEPES buffer and 0.2% bovine serum albumin, pH 7.4) for 45 min at 37′C. The intracellular calcium mobilization induced by the CXCL-12 (25-50 ng/mL) was then measured at 37° C. by monitoring the fluorescence as a function of time in all the wells simultaneously using a fluorometric imaging plate reader (FLIPR Tetra, Molecular Devices).

[2] = biological target: T2, Jurkat cells expressing CXCR4 (Homo sapiens, UniProt P61073); assay: Chemokine (CXCL12-AF647) binding inhibition assay; settings: CXCL12-AF647 25 ng/mL, read-out: IC50 CXCL-12 binding Jurkat
T2 construct: Jurkat cells expressing CXCR4; endogenous in cells; host or cells: Jurkat cells
Protocol: Jurkat cells expressing CXCR4 were washed once with assay buffer (Hanks' balanced salt solution with 20 mM HEPES buffer and 0.2% bovine serum albumin, pH 7.4) and then incubated for 15 min at room temperature with the test compounds diluted in assay buffer at dose-dependent concentrations. Subsequently, CXCL12-AF647 (25 ng/mL) was added to the compound-incubated cells. The cells were incubated for 30 min at room temperature. Thereafter, the cells were washed twice in assay buffer, fixed in 1% paraformaldehyde in PBS, and analyzed on the FL4 channel of a FACSCalibur flow cytometer equipped with a 635-nm red diode laser (Becton Dickinson, San Jose, Calif., USA).
The percentages of inhibition of CXCL12-AF647 binding were calculated according to the formula: [1−((MFI−MFINC)/(MFIPC−MFINC))]×100 where MFI is the mean fluorescence intensity of the cells incubated with CXCL12-AF647 in the presence of the inhibitor, MFINC is the mean fluorescence intensity measured in the negative control (i.e., autofluorescence of unlabeled cells), and MFIPC is the mean fluorescence intensity of the positive control (i.e., cells exposed to CXCL12-AF647 alone).

in vitro = settings: human, Caco-2, pH 7.4
Protocol: The goal of this assay was to evaluate the intestinal absorption potential of drug candidates using Caco-2 cell lines.
Experimental Procedure • 1. Pre-warm Pre-warm HBSS Buffer in 37° C. water bath • 2. Sonicate Take compounds from −20° C., sonicate for a few minutes (no less than 1 minute) • 3. Solution preparation
For A-to-B Direction: • HBSS buffer with 0.3% DMSO and 5 μM LY: add 150 μL DMSO and 50 μL LY (5 mM) into 50 ml HBSS buffer (pH 7.4). • HBSS buffer with 0.1% DMSO and 5 μM LY: add 50 μL DMSO and 50 μL LY (5 mM) into 50 mL HBSS buffer (pH 7.4).
For B-to-A Direction: • HBSS buffer with 0.3% DMSO: add 150 μL DMSO into 50 ml HBSS buffer (pH 7.4). HBSS buffer with 0.1% DMSO: add 50 μL DMSO into 50 ml HBSS buffer (pH 7.4).
For A-to-B Direction: • Prepare HBSS buffer with 0.4% DMSO: add 200 μL DMSO into 50 ml HBSS buffer (pH 7.4).
For B-to-A Direction: • Prepare HBSS buffer with 0.4% DMSO and 5 μM LY: add 200 μL DMSO and 50 μL LY (5 mM) into 50 ml HBSS buffer (pH 7.4).
• 4. Measure TEER Take cell culture plate out of incubator, wash the cell monolayers with HBSS buffer, and then measure TEER values at Rm temperature. • 5. Centrifuge Centrifuge the compound solution (from step 3) at 4000 rpm for 5 min before loading to donor chambers. • 6. Dosing Add solution based on the volumes listed in the following table (make sure to take extra 100 μL of donor sample for T0 as Backup).
• 7. Apical LYTO samples To determine LY concentration in the apical chamber, take 100 μL sample from apical chambers into an opaque plate for LYTO. • 8. Pre-warm Pre-warm apical and basolateral plates at 37° C. for about 5 min, then begin transport by placing the apical plate onto basolateral plate. • 9. Incubation Keep the plates in incubator at 37° C. for 90 min. • 10.
• Prepare 1× solution: • 3 μL (20×)+57 μL of 0.4% DMSO HBSS+60 μL ACN with IS (Osalmid or Imipramine)—120 μL (1×) • 11. Transport termination Separate the apical plate from the basolateral plate after 90-min incubation. • 12. Measure LY Take 100 μL samples from basolateral plate to an opaque plate as LYT90. • 13. Measure LY concentrations for LYTO and LYT90 by Fluorometer (at excitation of 485 nm/emission of 535 nm). • 14.
Drug permeability: Papp=(VA/(Area×time))×([drug]accepter/(([drug]initial, donor)×Dilution Factor) • Where VA is the volume in the acceptor well, area is the surface area of the membrane and time is the total transport time in seconds.
For Millicell-24 Cell Culture Plates: surface area of the membrane=0.7 cm^2, VA=0.8 mL (A-to-B) or 0.4 mL (B-to-A)

T2 sequence (P61073 whole entry): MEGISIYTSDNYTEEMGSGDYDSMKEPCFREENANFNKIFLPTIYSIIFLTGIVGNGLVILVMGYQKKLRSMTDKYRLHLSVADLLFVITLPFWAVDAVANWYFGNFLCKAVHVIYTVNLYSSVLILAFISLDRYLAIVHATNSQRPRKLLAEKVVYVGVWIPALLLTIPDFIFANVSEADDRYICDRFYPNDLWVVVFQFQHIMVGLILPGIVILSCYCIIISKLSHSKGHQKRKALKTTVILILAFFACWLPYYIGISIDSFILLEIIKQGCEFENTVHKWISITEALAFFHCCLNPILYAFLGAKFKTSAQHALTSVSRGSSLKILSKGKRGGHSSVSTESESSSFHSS
T1 sequence (P61073 whole entry): as above

| Compound | IC50 [1] [nM] | IC50 [2] [nM] | Papp A→B at 90 min, 10 μM (in vitro) [×10⁻⁶ cm/s] | Papp B→A at 90 min, 10 μM (in vitro) [×10⁻⁶ cm/s] | efflux ratio at 90 min, 10 μM (in vitro) |
| --- | --- | --- | --- | --- | --- |
| Cc1cccnc1CN(CCc1ccccn1)C(C)c1ccccn1 (centres unmarked) [Compound I-3] | 100 to 1000 | 0.01 to 100 | > 10 | > 10 | 0.1 to 10 |
| CC(C)c1cccnc1CN(CCC(N)=O)Cc1ncccc1-c1ccccc1 [Compound I-47] | ≥ 1000 | 100 to 1000 | > 10 | > 10 | 0.1 to 10 |
| Cc1cccnc1CN(CCc1c[nH]cn1)Cc1nccs1 [Compound I-52] | ≥ 1000 | 100 to 1000 | 5 to 10 | > 10 | 0.1 to 10 |
| OCCCN(Cc1nc2ccccc2[nH]1)[C@H]1CCCc2cccnc21 [Compound I-19] | 100 to 1000 | 0.01 to 100 | > 10 | > 10 | 0.1 to 10 |
| Cn1c(CN(CCc2c[nH]cn2)[C@H]2CCCc3cccnc32)nc2ccccc21 [Compound I-25] | 0.01 to 100 | 0.01 to 100 | < 5 | > 10 | 10 to 30 |
| NC(=O)CCN(Cc1ncccc1-c1ccccc1)[C@H]1CCCc2cccnc21 [Compound I-51] | ≥ 1000 | 0.01 to 100 | 5 to 10 | > 10 | 0.1 to 10 |
| COc1ccc(CCN(Cc2ncccc2C)Cc2ncccc2C)nc1 [Compound I-32] | ≥ 1000 | 0.01 to 100 | > 10 | > 10 | 0.1 to 10 |
| COc1cccc(CCN(Cc2ncccc2C)Cc2ncccc2C)n1 [Compound I-31, 2-(6-Methoxypyridin-2-yl)-N,N-bis((3-methylpyridin-2-yl)methyl)ethan-1-amine] | 0.01 to 100 | 0.01 to 100 | > 10 | > 10 | 0.1 to 10 |
| COc1cccnc1CCN(Cc1ncccc1C)Cc1ncccc1C [Compound I-56] | ≥ 1000 | 0.01 to 100 | 5 to 10 | > 10 | 0.1 to 10 |
| OCCN(Cc1nc2ccccc2[nH]1)[C@H]1CCCc2cccnc21 [Compound I-55] | ≥ 1000 | 100 to 1000 | > 10 | > 10 | 0.1 to 10 |
| Clc1cccnc1CN(CCc1cnc[nH]1)Cc1ncccc1-c1ccccc1 [Compound I-39] | ≥ 1000 | 0.01 to 100 | > 10 | > 10 | 0.1 to 10 |
| Cc1cccnc1CN(CCc1cnc[nH]1)Cc1ncccc1-c1ccccc1 [Compound I-57] | 100 to 1000 | 0.01 to 100 | < 5 | > 10 | 0.1 to 10 |
| Cc1cccnc1CN(CCC(N)=O)[C@H]1CCCc2cccnc21 [Compound I-23] | ≥ 1000 | 0.01 to 100 | 5 to 10 | > 10 | 10 to 30 |
| COc1ccnc(CCN(Cc2ncccc2C)Cc2ncccc2C)c1 [Compound I-33] | ≥ 1000 | 0.01 to 100 | > 10 | > 10 | 0.1 to 10 |
| c1ccc2c(CN(CCc3c[nH]cn3)Cc3nccs3)nccc2c1 [Compound I-54] | ≥ 1000 | 100 to 1000 | 5 to 10 | > 10 | 0.1 to 10 |
| Cc1cccnc1CN(CCC(N)=O)C(C)c1ccccn1 (centres unmarked) [Compound I-13] | ≥ 1000 | 0.01 to 100 | > 10 | > 10 | 0.1 to 10 |
| NC(=O)CCN(Cc1nccc2ccccc12)[C@H]1CCCc2cccnc21 [Compound I-49] | 100 to 1000 | 0.01 to 100 | 5 to 10 | > 10 | 0.1 to 10 |
| Cc1cccnc1CN(CCc1c[nH]cn1)[C@H]1CCCc2cccnc21 [Compound I-26] | ≥ 1000 | 0.01 to 100 | < 5 | > 10 | 10 to 30 |
| Cc1cccnc1CN(CCC(N)=O)Cc1ncccc1C [Compound I-14, 3-(Bis((3-methylpyridin-2-yl)methyl)amino)propanamide] | ≥ 1000 | 100 to 1000 | > 10 | > 10 | 0.1 to 10 |
| Cc1cccnc1CN(CCc1cnc[nH]1)Cc1ncccc1Cl [Compound I-10] | 100 to 1000 | 0.01 to 100 | 5 to 10 | > 10 | 0.1 to 10 |
| Cc1cccnc1CN(CCc1c[nH]cn1)Cc1nc2cc(F)ccc2n1C [Compound I-42] | ≥ 1000 | 0.01 to 100 | < 5 | > 10 | > 30 |
| Cc1cccnc1CN(CCc1ccccn1)Cc1ncccc1C [Compound I-4] | 100 to 1000 | 0.01 to 100 | > 10 | > 10 | 0.1 to 10 |
| CC(c1ccccn1)N(CCc1ccccn1)Cc1nc2ccccc2[nH]1 (centres unmarked) [Compound I-2, N-((1H-benzo[d]imidazol-2-yl)methyl)-2-(pyridin-2-yl)-N-(1-(pyridin-2-yl)ethyl)ethanamine] | 0.01 to 100 | 0.01 to 100 | > 10 | > 10 | 0.1 to 10 |
| Cn1c(CN(CCc2c[nH]cn2)[C@H]2CCCc3cccnc32)nc2cccc(F)c21 [Compound I-44] | 0.01 to 100 | 0.01 to 100 | 5 to 10 | > 10 | 0.1 to 10 |
| Cc1cccnc1CN(CCc1c[nH]cn1)Cc1nc2cccc(F)c2n1C [Compound I-40] | ≥ 1000 | 0.01 to 100 | < 5 | > 10 | 10 to 30 |
